# Experimental data reported in article PMC10648875 (Antimicrobial Agents and Chemotherapy, 2023).
# Like-named read-outs stand apart in the source and are kept apart here.
# How the values were obtained:
# [1] = system: Escherichia coli NCTC 13353 (ECM7514), CTX-M-15; assay: MIC, reference strain; type: cell-based; conditions: Escherichia coli, NCTC13353
# Experimental: (§1) Other BL/BLI combinations were tested at their recommended BLI concentrations. MIC values for the partner antibiotics and BLIs alone were also determined (Table 2; Table S1). All investigational and marketed BLIs enhanced the potency of antibiotics according to their spectrum of inhibition. MIC values against CLSI-approved QC strains were within acceptable ranges for drugs and combinations tested (Table 3).
# (§2) Isolates were tested for antimicrobial susceptibility using the broth microdilution methodology per CLSI M07 (2018) guidelines ([40]). JMI Laboratories produced frozen-form 96-well panels with cation-adjusted Mueller-Hinton broth as the testing medium. Current CLSI quality assurance practices were followed when performing the susceptibility tests. MIC values were validated by concurrently testing the following CLSI-recommended ([27]) QC reference strains: E. coli NCTC 13353 (CTX-M-15), Klebsiella pneumoniae ATCC BAA-2814 (KPC-3), Klebsiella pneumoniae ATCC BAA-1705 (KPC-2), and K. pneumoniae ATCC 700603 (SHV-18). The inoculum density during susceptibility testing was monitored by bacterial colony counts. Where applicable, QC ranges for tested reference strains were those approved or published by the CLSI ([27]). Meropenem was purchased from Carbosynth; ceftolozane was synthesized at Acme Bioscience, Palo Alto, CA, USA; all other antibiotics were from Sigma Aldrich. Xeruborbactam was synthesized at Qpex Biopharma, San Diego, CA, USA. Avibactam was purchased from eNovation, Chemicals LLC, Bridgewater, NJ, USA. Vaborbactam was synthesized at The Medicines Company, San Diego, CA. Relebactam, taniborbactam, and relebactam were synthesized at Acme Bioscience.
# [2] = system: P. aeruginosa BAA-3197 (PA5257), KPC-2; assay: MIC, reference strain; type: cell-based; conditions: Pseudomonas aeruginosa, BAA3197; KPC-2; BLI at the fixed concentration in brackets; read-out: MIC
# [3] = molecular target: SHV-12 (Klebsiella pneumoniae, UniProt P0AD64, E235K/G234S/L31Q); assay: Ki app of β-lactamase inhibition, purified enzyme; type: biochemical
# Experimental: (§3) The majority of purified β-lactamase enzymes used in the study were either expressed and purified internally ([35]) or obtained from Emerald Biostructures (Bainbridge Island, WA, USA). L1 enzyme was purified as described in reference ([36]).
# (§4) Enzymes were mixed with BLIs at concentrations varying from 160 to 0.0027 µM in 50-mM Na-phosphate pH7.0, 0.1-mg/mL bovide serum albumin (BSA) (buffer A; 20-µM ZnCl2 was also added for all metalloenzymes) and incubated for 10 minutes at 37°C. Nitrocefin (50 µM) (10 µM for SHV-12) or 100 µM of imipenem (prewarmed at 37°C for 10 minutes) was added, and substrate cleavage profiles were recorded at 37°C at 490 nm every 10 seconds for 10 minutes or at 294 nm every 30 seconds for 1 hour for nitrocefin and imipenem, respectively. […] Ki app values (Ki for metalloenzymes) were calculated by the method of Waley ([37]).
# [4] = system: Klebsiella pneumoniae ATCC 700603 (KPM2881), SHV-18; assay: MIC, reference strain; type: cell-based; conditions: Klebsiella pneumoniae, ATCC700603; SHV-18; BLI at the fixed concentration in brackets; read-out: MIC
# Experimental: as §1
# as §2, with “([27]).” for “([27]). Meropenem was purchased from Carbosynth; ceftolozane was synthesized at Acme Bioscience, Palo Alto, CA, USA; all other antibiotics were from Sigma Aldrich. Xeruborbactam was synthesized at Qpex Biopharma, San Diego, CA, USA. Avibactam was purchased from eNovation, Chemicals LLC, Bridgewater, NJ, USA. Vaborbactam was synthesized at The Medicines Company, San Diego, CA. Relebactam, taniborbactam, and relebactam were synthesized at Acme Bioscience.”
# [5] = system: K. pneumoniae ATCC BAA-1705 (KPM1123), KPC-2; assay: MIC, reference strain; type: cell-based; conditions: Klebsiella pneumoniae, ATCCBAA1705; KPC-2; BLI at the fixed concentration in brackets; read-out: MIC
# Experimental: as §1
# as §2, with “([27]).” for “([27]). Meropenem was purchased from Carbosynth; ceftolozane was synthesized at Acme Bioscience, Palo Alto, CA, USA; all other antibiotics were from Sigma Aldrich. Xeruborbactam was synthesized at Qpex Biopharma, San Diego, CA, USA. Avibactam was purchased from eNovation, Chemicals LLC, Bridgewater, NJ, USA. Vaborbactam was synthesized at The Medicines Company, San Diego, CA. Relebactam, taniborbactam, and relebactam were synthesized at Acme Bioscience.”
# [6] = system: E. coli CDC 0069 (EC1106), NDM-1; assay: MIC, reference strain; type: cell-based; conditions: Escherichia coli, BLI at the fixed concentration in brackets, read-out: MIC
# Experimental: as §1
# as §2, with “([27]).” for “([27]). Meropenem was purchased from Carbosynth; ceftolozane was synthesized at Acme Bioscience, Palo Alto, CA, USA; all other antibiotics were from Sigma Aldrich. Xeruborbactam was synthesized at Qpex Biopharma, San Diego, CA, USA. Avibactam was purchased from eNovation, Chemicals LLC, Bridgewater, NJ, USA. Vaborbactam was synthesized at The Medicines Company, San Diego, CA. Relebactam, taniborbactam, and relebactam were synthesized at Acme Bioscience.”
# [7] = system: K. pneumoniae ATCC BAA-2814 (KP1074), KPC-3; assay: MIC, reference strain; type: cell-based; conditions: Klebsiella pneumoniae, ATCCBAA2814; KPC-3; BLI at the fixed concentration in brackets; read-out: MIC
# Experimental: as §1
# as §2, with “([27]).” for “([27]). Meropenem was purchased from Carbosynth; ceftolozane was synthesized at Acme Bioscience, Palo Alto, CA, USA; all other antibiotics were from Sigma Aldrich. Xeruborbactam was synthesized at Qpex Biopharma, San Diego, CA, USA. Avibactam was purchased from eNovation, Chemicals LLC, Bridgewater, NJ, USA. Vaborbactam was synthesized at The Medicines Company, San Diego, CA. Relebactam, taniborbactam, and relebactam were synthesized at Acme Bioscience.”
# [8] = system: K. pneumoniae CDC 0135 (KP1291), VIM-1; assay: MIC, reference strain; type: cell-based; conditions: Klebsiella pneumoniae, BLI at the fixed concentration in brackets, read-out: MIC
# Experimental: as §1
# as §2, with “([27]).” for “([27]). Meropenem was purchased from Carbosynth; ceftolozane was synthesized at Acme Bioscience, Palo Alto, CA, USA; all other antibiotics were from Sigma Aldrich. Xeruborbactam was synthesized at Qpex Biopharma, San Diego, CA, USA. Avibactam was purchased from eNovation, Chemicals LLC, Bridgewater, NJ, USA. Vaborbactam was synthesized at The Medicines Company, San Diego, CA. Relebactam, taniborbactam, and relebactam were synthesized at Acme Bioscience.”
# [9] = molecular target: IMP-1 (Serratia marcescens, UniProt P52699); assay: Ki of metallo-β-lactamase inhibition, purified enzyme; type: biochemical
# Experimental: as §3, §4
# [10] = system: ESBL-producing Enterobacterales; assay: organism not typed; type: cell-based; conditions: ESBL (N = 521); xeruborbactam and vaborbactam fixed 8 mg/L, all other BLIs 4 mg/L
# [11] = system: carbapenem-resistant Enterobacterales (subset of 507 isolates); assay: organism not typed; type: cell-based; conditions: xeruborbactam and vaborbactam fixed 8 mg/L, all other BLIs 4 mg/L
# [12] = system: ESBL-producing and carbapenem-resistant Enterobacterales (All, N = 1028); assay: organism not typed; type: cell-based; conditions: All (N = 1028); xeruborbactam and vaborbactam fixed 8 mg/L, all other BLIs 4 mg/L
# [13] = molecular target: NDM-1 (Klebsiella pneumoniae, UniProt C7C422); assay: biochemical
# Experimental: as §3, §4
# [14] = molecular target: CTX-M-14 (Escherichia coli, UniProt Q9L5C7); assay: Ki app of β-lactamase inhibition, purified enzyme; type: biochemical; conditions: 10-minute preincubation; nitrocefin substrate
# Experimental: as §3, §4
# [15] = molecular target: P99 (Enterobacter cloacae, UniProt P05364); assay: Ki app of β-lactamase inhibition, purified enzyme; type: biochemical; conditions: Ki app
# Experimental: as §3, §4
# [16] = molecular target: CTX-M-15 (Escherichia coli, UniProt Q9EXV5); assay: Ki app of β-lactamase inhibition, purified enzyme; type: biochemical; conditions: 10-minute preincubation; nitrocefin substrate
# Experimental: as §3, §4
# [17] = molecular target: VIM-1 (Pseudomonas aeruginosa, UniProt A0A0F7KYQ8); assay: Ki of metallo-β-lactamase inhibition, purified enzyme; type: biochemical; conditions: 10-minute preincubation; nitrocefin substrate
# Experimental: as §3, §4
# [18] = CTX-M-15, BLI at the fixed concentration in brackets, read-out: MIC
# IMP-1, sequence (P52699 19-246 limits assumed): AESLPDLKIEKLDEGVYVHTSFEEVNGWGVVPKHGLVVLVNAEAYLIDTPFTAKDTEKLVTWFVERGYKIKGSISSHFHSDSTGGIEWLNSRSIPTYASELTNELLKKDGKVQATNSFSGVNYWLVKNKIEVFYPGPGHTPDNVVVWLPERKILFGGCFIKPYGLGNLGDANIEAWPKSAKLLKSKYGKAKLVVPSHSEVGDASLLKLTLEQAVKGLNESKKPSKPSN
# SHV-12, sequence (P0AD64 22-286 L31Q/G234S/E235K): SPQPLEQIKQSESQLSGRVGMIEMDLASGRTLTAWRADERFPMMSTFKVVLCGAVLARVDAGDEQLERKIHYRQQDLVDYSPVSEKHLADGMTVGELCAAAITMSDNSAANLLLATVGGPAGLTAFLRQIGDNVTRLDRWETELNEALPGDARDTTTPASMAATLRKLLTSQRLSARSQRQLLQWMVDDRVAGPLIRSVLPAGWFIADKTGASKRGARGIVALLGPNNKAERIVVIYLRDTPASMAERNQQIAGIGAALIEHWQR
# P99, sequence (P05364 21-381): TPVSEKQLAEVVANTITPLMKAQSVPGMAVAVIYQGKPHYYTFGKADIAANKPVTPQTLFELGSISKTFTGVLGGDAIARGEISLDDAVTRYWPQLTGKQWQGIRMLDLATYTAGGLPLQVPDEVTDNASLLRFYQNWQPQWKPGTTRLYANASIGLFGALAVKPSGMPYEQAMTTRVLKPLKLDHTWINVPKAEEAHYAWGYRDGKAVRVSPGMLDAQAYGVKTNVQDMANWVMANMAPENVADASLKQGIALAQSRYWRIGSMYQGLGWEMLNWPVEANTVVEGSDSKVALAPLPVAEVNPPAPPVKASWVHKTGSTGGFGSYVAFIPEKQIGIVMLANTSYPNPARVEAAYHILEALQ
# CTX-M-14, sequence (Q9L5C7 entry or part of it): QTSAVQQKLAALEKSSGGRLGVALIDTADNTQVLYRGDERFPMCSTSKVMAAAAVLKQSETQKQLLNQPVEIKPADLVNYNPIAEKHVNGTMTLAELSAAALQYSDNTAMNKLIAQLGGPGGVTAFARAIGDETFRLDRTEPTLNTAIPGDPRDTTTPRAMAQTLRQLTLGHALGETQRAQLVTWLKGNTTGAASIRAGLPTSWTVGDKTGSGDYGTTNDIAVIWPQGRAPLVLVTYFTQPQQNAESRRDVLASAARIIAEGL
# NDM-1, sequence (C7C422 29-270 limits assumed): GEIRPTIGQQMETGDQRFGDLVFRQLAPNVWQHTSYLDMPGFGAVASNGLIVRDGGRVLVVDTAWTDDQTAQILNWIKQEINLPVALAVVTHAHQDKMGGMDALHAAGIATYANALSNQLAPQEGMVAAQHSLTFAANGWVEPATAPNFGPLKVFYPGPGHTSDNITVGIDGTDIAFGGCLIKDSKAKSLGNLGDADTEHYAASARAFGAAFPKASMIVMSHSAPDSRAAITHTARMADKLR
# CTX-M-15, sequence (Q9EXV5 entry or part of it): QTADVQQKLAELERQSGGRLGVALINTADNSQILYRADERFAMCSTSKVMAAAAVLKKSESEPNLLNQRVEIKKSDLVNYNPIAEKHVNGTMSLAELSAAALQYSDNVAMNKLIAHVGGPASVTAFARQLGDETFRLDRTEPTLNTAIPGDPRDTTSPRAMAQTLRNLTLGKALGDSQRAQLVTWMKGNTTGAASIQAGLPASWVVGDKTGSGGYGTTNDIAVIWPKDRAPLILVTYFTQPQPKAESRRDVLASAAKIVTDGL
SMILES,"MIC [1, 18]",MIC [2],MIC [4],MIC [5],MIC [6],MIC [7],MIC [8],Ki [9],further results
"O=C(O)C[C@@H]1CC[C@H](NC(=O)Cc2cccs2)B(O)O1 [Vaborbactam, vaborbactam]",> 64 µg/mL,> 64 µg/mL,> 64 µg/mL,> 64 µg/mL,> 64 µg/mL,> 64 µg/mL,> 64 µg/mL,> 160000 nM,"Ki ([3]; 10-minute preincubation, nitrocefin substrate, read-out: Ki app): 21 ± 4 nM"
"C[C@@H](O)[C@H]1C(=O)N2C(C(=O)O)=C(SCCN=CN)C[C@H]12 [IMP, imipenem]",–,> 64 µg/mL,0.06 µg/mL,8 µg/mL,16 µg/mL,64 µg/mL,8 µg/mL,–,MIC [1]: 0.125 µg/mL
"Cn1c(N)c(NC(=O)NCCN)c[n+]1CC1=C(C(=O)O)N2C(=O)[C@@H](NC(=O)/C(=N\OC(C)(C)C(=O)[O-])c3nsc(N)n3)[C@H]2SC1 [TOL, ceftolozane]",> 64 µg/mL,32 µg/mL,8 µg/mL,64 µg/mL,> 64 µg/mL,> 64 µg/mL,> 64 µg/mL,–,–
C[C@@H](O)[C@H]1C(=O)N2C(C(=O)O)=C(S[C@@H]3CN[C@H](C(=O)Nc4cccc(C(=O)O)c4)C3)[C@H](C)[C@H]12 [ETP],–,–,–,–,–,–,–,–,MIC50 [10]: 0.06 µg/mL; MIC90 [10]: 0.5 µg/mL; MIC50 ([11]; CRE (N = 507)): >32 µg/mL; MIC90 ([11]; CRE (N = 507)): >32 µg/mL; MIC50 ([11]; KPC (N = 193)): >32 µg/mL; MIC90 ([11]; KPC (N = 193)): >32 µg/mL; MIC50 ([11]; MBL (N = 168)): >32 µg/mL; MIC90 ([11]; MBL (N = 168)): >32 µg/mL; MIC50 ([11]; Non-CP CRE (N = 50)): >32 µg/mL; MIC90 ([11]; Non-CP CRE (N = 50)): >32 µg/mL; MIC50 ([11]; OXA-48-like (N = 96)): >32 µg/mL; MIC90 ([11]; OXA-48-like (N = 96)): >32 µg/mL; MIC50 [12]: 4 µg/mL; MIC90 [12]: >32 µg/mL
"NC(=O)[C@@H]1CC[C@@H]2CN1C(=O)N2OS(=O)(=O)O [Avibactam, avibactam]",16 µg/mL,> 64 µg/mL,32 µg/mL,16 µg/mL,8 µg/mL,64 µg/mL,> 64 µg/mL,> 160000 nM,Ki [13]: > 160000 nM; Ki [14]: 0.41 ± 0.13 nM; Ki [3]: 0.24 ± 0.07 nM; Ki [15]: 10 ± 2 nM; Ki [16]: 0.18 ± 0.08 nM; Ki [17]: > 160000 nM
